Source: US20260373165A1, “PHARMACEUTICAL COMBINATIONS AND COMPOSITIONS, AND METHODS OF USE THEREOF” (SHENZHEN HIGHTIDE BIOPHARMACEUTICAL LTD., priority 2022, published 2026)

Assays:
Type in all cases: in vivo, mouse (C57BL/6J male, 60% HFD DIO)
[1] = Example 2: body fat mass by MRI on day 23
From the text: (§1) After 5-6-week-old C57BL/6J male mice were acclimatized for 1 week, the weight of each mouse was weighed, and the mice were randomly divided into a control group and a model group by taking the weight as a main index, where 12 mice in the control group were fed with common feed (CD), and the mice in the remaining model group were fed with 60% high-fat feed (60% HFD) for 10-12 weeks to construct a DIO obesity model, with the average body weight being not less than 40 g. The mice fed with 60% HFD were grabbed and acclimatized with a solvent for 3 days, where the acclimatization with a solvent was performed by oral gavage of 0.5% CMC-Na, once daily.
(§2) The food intake, the body weight, the body fat ratio, and the insulin level of the mice were respectively measured, followed by fasting blood glucose level, and the mice were randomly grouped according to Table 12 by taking the body weight as an index, and the remaining ungrouped mice were euthanized. After grouping, each group of mice was administered according to Table 12, the day of administration was defined as DO, and the administration volume of each drug was determined based on the results obtained by the calculation of 5 μL/g× mouse body weight (g).
(§3) For the combined administration group, the administration sequence and the administration time were kept consistent at each administration. The mice were continuously fed with high-fat feed during the administration period until the administration was finished. During administration, 1 food intake was measured per week (difference in feed weights at an interval of 24 h was measured); each group of mice was weighed once daily; blood was collected from the tail tip on day 16 and day 30, respectively, so as to measure fasting blood glucose levels once (blood was collected after fasting from 9:00 am to 3:[…]); on day 24 of administration (D23), the body fat ratio and the lean mass of each group of mice were measured by MRI (the measurement period was kept consistent with that before grouping); after 25 days of administration intervention (day 24), each group of mice was fasted for 6 h and subjected to OGTT (0 min, 15 min, 30 min, 60 min, 90 min, 120 min) to detect their blood glucose levels; after 29 days of administration intervention (day 28), each group of mice was fasted for 6 h and subjected to OGTT (0 min, 15 min, 30 min, 60 min, 90 min, 120 min), and meanwhile subjected to blood sampling via submaxillary vein (0 min, 15 min, 30 min, about 30 μL of blood sampled each time), and then the blood plasma was separated for detecting the insulin level by ELISA, where the separated blood plasma was more than 10 μL; the next day (D30) at the end of administration was set as the test endpoint, and the mice were fasted for 6 h in the morning and subjected to fasting blood glucose level measurement; subsequently, the mice were euthanized with CO2, blood was collected from the heart of each mouse for analysis, and each group of mice was dissected; the liver and subcutaneous, epididymal and mesenteric fat was collected, photographed and weighed, respectively.
The body weight, the body fat mass and the body fat ratio of each animal in groups G1 to G8 were measured on day 23 and averaged for each group, and the results are shown in Table 15 below, and FIGS. 21 and 22.

[2] = Example 2: lean mass by MRI on day 23
From the text: as §1, §2, §3
The body weight, the lean mass and the lean ratio of each animal in groups G1 to G8 were measured on day 23 and averaged for each group, and the results are shown in Table 16 below, and FIGS. 23 and 24.

[3] = Example 2: body weight and body weight change rate, combined administration of HTD1801 and dapagliflozin or empagliflozin in DIO obesity model; conditions: HTD1801 250 mpk, dapagliflozin 10 mpk, empagliflozin 15 mpk p.o. QD, semaglutide 10 nmol/kg s.c. Q3D
From the text: as §1, §2, §3

[4] = mean, day 23, HTD1801 250 mpk, dapagliflozin 10 mpk, empagliflozin 15 mpk p.o. QD

COc1ccc2cc3[n+](cc2c1OC)CCc1cc2c(cc1-3)OCO2.C[C@H](CCC(=O)[O-])[C@H]1CC[C@H]2[C@@H]3[C@@H](O)C[C@@H]4C[C@H](O)CC[C@]4(C)[C@H]3CC[C@]12C [HTD1801, berberine ursodeoxycholate]
body fat mass and body fat ratio (in words) ([1]; day 23, relative to control group G2): significantly decreased | Body weight ([1]; mean, day 23 (Table 15), HTD1801 250 mpk, dapagliflozin 10 mpk, empagliflozin 15 mpk p.o. QD): 38.9 g | Body fat ratio [1, 4]: 44.8% | Fat (body fat mass) [1, 4]: 17.5 g | lean ratio (in words) ([2]; day 23, relative to model control group G2): slightly increased | Body weight ([2]; mean, day 23 (Table 16), HTD1801 250 mpk, dapagliflozin 10 mpk, empagliflozin 15 mpk p.o. QD): 38.9 g | Lean (lean mass) [2, 4]: 5.1 g | Lean ratio [2, 4]: 13.0% | body weight change / weight loss effect (in words) [3]: close to that of the semaglutide group, with a uniform and sustained decrease throughout the administration period | Body weight (mean) ([3]; day 0 (baseline)): 45.3 g | Body weight change rate ([3]; day 0 (baseline)): 0.0% | Body weight (mean) ([3]; day 1): 44.5 g | Body weight change rate ([3]; day 1): −1.6% | Body weight (mean) ([3]; day 2): 44.1 g | Body weight change rate ([3]; day 2): −2.5% | Body weight (mean) ([3]; day 3): 44.1 g | Body weight change rate ([3]; day 3): −2.5% | Body weight (mean) ([3]; day 4): 43.6 g | Body weight change rate ([3]; day 4): −3.7% | Body weight (mean) ([3]; day 5): 43.1 g | Body weight change rate ([3]; day 5): −4.9% | Body weight (mean) ([3]; day 6): 42.7 g | Body weight change rate ([3]; day 6): −5.7% | Body weight (mean) ([3]; day 7): 42.7 g | Body weight change rate ([3]; day 7): −5.7% | Body weight (mean) ([3]; day 8): 42.5 g | Body weight change rate ([3]; day 8): −6.2% | Body weight (mean) ([3]; day 9): 41.9 g | Body weight change rate ([3]; day 9): −7.5% | Body weight (mean) ([3]; day 10): 41.9 g | Body weight change rate ([3]; day 10): −7.4% | Body weight (mean) ([3]; day 11): 41.7 g | Body weight change rate ([3]; day 11): −7.9% | Body weight (mean) ([3]; day 12): 41.3 g | Body weight change rate ([3]; day 12): −8.7% | Body weight (mean) ([3]; day 13): 40.3 g | Body weight change rate ([3]; day 13): −10.9% | Body weight (mean) ([3]; day 14): 40.5 g | Body weight change rate ([3]; day 14): −10.7% | Body weight (mean) ([3]; day 15): 40.3 g | Body weight change rate ([3]; day 15): −11.1% | Body weight (mean) ([3]; day 16): 40.2 g | Body weight change rate ([3]; day 16): −11.2% | Body weight (mean) ([3]; day 17): 39.9 g | Body weight change rate ([3]; day 17): −11.8% | Body weight (mean) ([3]; day 18): 39.7 g | Body weight change rate ([3]; day 18): −12.3% | Body weight (mean) ([3]; day 19): 39.4 g | Body weight change rate ([3]; day 19): −12.8% | Body weight (mean) ([3]; day 20): 39.3 g | Body weight change rate ([3]; day 20): −13.2% | Body weight (mean) ([3]; day 21): 39.1 g | Body weight change rate ([3]; day 21): −13.5% | Body weight (mean) ([3]; day 22): 39.2 g | Body weight change rate ([3]; day 22): −13.4% | Body weight (mean) ([3]; day 23): 38.9 g | Body weight change rate ([3]; day 23): −14.0% | Body weight (mean) ([3]; day 24): 38.2 g | Body weight change rate ([3]; day 24): −15.6% | Body weight (mean) ([3]; day 25): 38.4 g | Body weight change rate ([3]; day 25): −15.1% | Body weight (mean) ([3]; day 26): 38.6 g | Body weight change rate ([3]; day 26): −14.6% | Body weight (mean) ([3]; day 27): 38.7 g | Body weight change rate ([3]; day 27): −14.5% | Body weight (mean) ([3]; day 28): 38.4 g | Body weight change rate ([3]; day 28): −15.1% | Body weight (mean) ([3]; day 29): 37.4 g | Body weight change rate ([3]; day 29): −17.4%
